Test results published in ChEMBL document CHEMBL1133200, “Nonpeptide endothelin antagonists: from lower affinity pyrazol-5-ols to higher affinity pyrazole-5-carboxylic acids” (Bioorg Med Chem Lett, 2000).

Columns and labels:
[1] = target: T1, Endothelin receptor type B (Rattus norvegicus, UniProt P21451); assay: In vitro inhibition of [125-I] labelled ET-1 endothelin binding to Endothelin B receptor in rat cerebellum; assay type: tissue-based
T1 sequence (P21451 whole entry): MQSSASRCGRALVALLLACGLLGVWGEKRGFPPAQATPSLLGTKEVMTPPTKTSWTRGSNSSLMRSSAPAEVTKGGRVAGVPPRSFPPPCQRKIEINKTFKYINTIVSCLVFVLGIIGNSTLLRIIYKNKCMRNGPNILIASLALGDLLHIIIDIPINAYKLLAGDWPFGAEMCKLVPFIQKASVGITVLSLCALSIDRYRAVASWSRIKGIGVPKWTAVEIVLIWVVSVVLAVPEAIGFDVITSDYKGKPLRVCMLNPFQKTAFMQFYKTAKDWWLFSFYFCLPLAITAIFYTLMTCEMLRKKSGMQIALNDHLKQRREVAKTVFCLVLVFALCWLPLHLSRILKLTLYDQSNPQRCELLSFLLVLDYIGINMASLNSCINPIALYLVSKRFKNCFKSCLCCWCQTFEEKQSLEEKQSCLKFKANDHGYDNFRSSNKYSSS

Endothelin-1 receptor [2] = target: T2, Endothelin-1 receptor (Rattus norvegicus, UniProt P26684); assay: In vitro inhibition of endothelin binding to endothelin A receptor in rat heart ventricles was measured using a 125-I labelled ET-1 competition assay
T2 sequence (P26684 whole entry): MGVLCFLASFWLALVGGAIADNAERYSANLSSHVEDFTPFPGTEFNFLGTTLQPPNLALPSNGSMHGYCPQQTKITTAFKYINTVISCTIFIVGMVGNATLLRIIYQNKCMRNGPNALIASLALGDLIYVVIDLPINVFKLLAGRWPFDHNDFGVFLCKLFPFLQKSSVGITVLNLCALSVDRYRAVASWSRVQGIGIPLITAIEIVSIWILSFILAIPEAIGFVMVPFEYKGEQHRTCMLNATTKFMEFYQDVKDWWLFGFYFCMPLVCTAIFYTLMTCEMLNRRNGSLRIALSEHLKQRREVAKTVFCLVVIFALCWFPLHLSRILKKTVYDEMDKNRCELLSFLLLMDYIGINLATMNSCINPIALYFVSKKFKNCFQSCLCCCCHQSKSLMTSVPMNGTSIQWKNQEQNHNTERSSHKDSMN

[3] = target: T1, Endothelin receptor type B; assay: In vitro inhibition of endothelin binding to Endothelin B receptor in rat cerebellum was measured using 125-I labelled ET-1 competition assay; No measurable affinity; assay type: tissue-based
[4] = pKa was determined in ethanol:water (1:1) system; assay type: physicochemical
Endothelin-1 receptor [5] = target: T2, Endothelin-1 receptor; assay: In vitro inhibition of endothelin binding to Endothelin A receptor in rat heart ventricles was measured using 125-I labelled ET-1 competition assay; No measurable affinity

IC50 [1] [µM]	IC50 (Endothelin-1 receptor [2]) [µM]	IC50 [3]	pKa [4]	IC50 (Endothelin-1 receptor [5])	Structure (SMILES)
5.4	1.3	–	–	–	COc1cccc(Cn2[nH]c(C(F)(F)F)c(Cc3cc(Cl)c4c(c3)OCO4)c2=O)c1
22	4.3	–	–	–	COc1cccc(Cn2[nH]c(C(F)(F)F)c(Cc3ccc(Cl)cc3)c2=O)c1
2.2	0.45	–	–	–	COc1cccc(Cn2nc(C(F)(F)F)c(Cc3ccc4c(c3)OCO4)c2OCC(=O)O)c1
39	48	–	–	–	COc1ccc(Cc2c(C(F)(F)F)[nH]n(Cc3cccc(OC)c3)c2=O)cc1
8.4	10	–	–	–	COc1cccc(Cn2[nH]c(C(F)(F)F)c(Cc3ccc(Cl)c(Cl)c3)c2=O)c1
11	–	–	–	–	COc1cccc(Cn2[nH]c(C(F)(F)F)c(Cc3ccc4c(c3)OCO4)c2=O)c1
–	98	Not Active	–	–	COc1cccc(Cn2[nH]c(C(F)(F)F)c(Cc3ccccc3)c2=O)c1
3.3	0.11	–	–	–	COc1cccc(Cn2[nH]c(C(F)(F)C(F)(F)F)c(Cc3ccc4c(c3)OCO4)c2=O)c1
36	1.7	–	–	–	O=c1c(Cc2ccc3c(c2)OCO3)c(C(F)(F)F)[nH]n1Cc1cccc(O)c1
> 25	40	–	–	–	COc1cccc(Cn2nc(C(F)(F)F)c(Cc3ccc4c(c3)OCO4)c2OCCO)c1
–	–	Not Active	6	Not Active	COc1cccc(Cn2nc(C(F)(F)F)c(Cc3ccc4c(c3)OCO4)c2OC)c1
1	0.14	–	–	–	COc1cccc(Cn2[nH]c(C(F)(F)C(F)(F)C(F)(F)F)c(Cc3ccc4c(c3)OCO4)c2=O)c1
–	40	Not Active	–	–	COc1cccc(Cn2[nH]c(C(F)(F)F)c(Cc3ccc(F)cc3)c2=O)c1
24	10	–	–	–	O=c1c(Cc2ccc3c(c2)OCO3)c(C(F)(F)F)[nH]n1Cc1ccccc1
25	3.8	–	–	–	O=c1c(Cc2ccc3c(c2)OCO3)c(C(F)(F)F)[nH]n1Cc1ccccc1Cl
15	3.1	–	–	–	COc1cccc(Cn2[nH]c(-c3ccc([N+](=O)[O-])cc3)c(Cc3ccc4c(c3)OCO4)c2=O)c1

IC50 [1] [µM]	IC50 (Endothelin-1 receptor [2]) [µM]	IC50 [3]	pKa [4]	IC50 (Endothelin-1 receptor [5])	Structure (SMILES)
12	3.8	–	–	–	COc1ccc(Cn2[nH]c(C(F)(F)F)c(Cc3ccc4c(c3)OCO4)c2=O)c(OCC(=O)O)c1
29	3.5	–	–	–	O=C(O)COc1cccc(Cn2[nH]c(C(F)(F)F)c(Cc3ccc4c(c3)OCO4)c2=O)c1
–	–	Not Active	–	Not Active	COc1cccc(Cn2[nH]c(C(F)(F)F)c(Cc3ccc(OC)c(OC)c3)c2=O)c1
–	64	Not Active	–	–	COc1cccc(Cn2nc(C(F)(F)F)c(Cc3ccc4c(c3)OCO4)c2OCCCC(=O)O)c1
0.034	0.018	–	–	–	COc1cccc(Cn2nc(-c3ccccc3)c(Cc3cc4c(cc3Cl)OCO4)c2C(=O)O)c1
–	–	Not Active	–	Not Active	CCOC(=O)COc1c(Cc2ccc3c(c2)OCO3)c(C(F)(F)F)nn1Cc1cccc(OC)c1
33	1.8	–	–	–	COc1ccccc1Cn1[nH]c(C(F)(F)F)c(Cc2ccc3c(c2)OCO3)c1=O
2.4	0.6	–	–	–	COc1cccc(Cn2[nH]c(C(F)(F)F)c(Cc3cc4c(cc3Cl)OCO4)c2=O)c1
9.2	2.1	–	–	–	COc1ccc(Cn2[nH]c(C(F)(F)F)c(Cc3ccc4c(c3)OCO4)c2=O)cc1
17	5.6	–	–	–	O=c1c(Cc2ccc3c(c2)OCO3)c(C(F)(F)F)[nH]n1Cc1ccc2c(c1)OCO2
0.04	0.028	–	–	–	COc1cccc(Cn2nc(-c3ccccc3)c(Cc3ccc4c(c3)OCO4)c2C(=O)O)c1
–	–	Not Active	–	Not Active	COc1cccc(Cn2[nH]c(C(F)(F)F)c(Cc3cc(OC)c(OC)c(OC)c3)c2=O)c1
–	20	Not Active	–	–	COc1cccc(Cn2[nH]c(C)c(Cc3ccc4c(c3)OCO4)c2=O)c1
3.2	0.42	–	–	–	COc1cccc(Cn2[nH]c(-c3ccccc3)c(Cc3ccc4c(c3)OCO4)c2=O)c1
24	7.5	–	–	–	COc1ccc(Cc2[nH]n(Cc3cccc(OC)c3)c(=O)c2Cc2ccc3c(c2)OCO3)cc1
14	1.9	–	–	–	O=c1c(Cc2ccc3c(c2)OCO3)c(C(F)(F)F)[nH]n1Cc1cccc(Cl)c1
